Literature values in patent publication US6469171B1, “Syntheses of a variety of lamellarin compounds and analogues” (The Australian National University, priority 1998, dated 2002).

Columns and labels:
[1] = test system: fertilised sea urchin; conditions: fertilised sea urchin assay
[2] = test system: P388 cell line; conditions: P388 cell line in culture
[3] = test system: A549 cell line; conditions: A549 cell line in culture
[4] = test system: lung cancer cell lines; conditions: by acting as a Type IV microtubule poison

Row | Compound | inhibition of cell division [1] | cytotoxicity [2] | cytotoxicity [3] | activity in lung cancer cell lines [4]
1 | COc1cc(-c2c3n(c4c(=O)oc5cc(O)c(OC)cc5c24)CCc2c-3cc(OC)c(OC)c2OC)ccc1O [Lamellarin C] | inhibition of cell division | – | – | –
2 | COc1cc(-c2c3c4cc(OC)c(O)cc4oc(=O)c3n3ccc4cc(O)c(OC)cc4c23)ccc1O [Lamellarin D] | inhibition of cell division | – | – | –
3 | COc1ccc(-c2c3n(c4c(=O)oc5cc(O)c(OC)cc5c24)CCc2cc(O)c(OC)cc2-3)cc1O [Lamellarin L] | – | significant cytoxicity | significant cytoxicity | –
4 | COc1ccc(-c2c3c4cc(OC)c(O)cc4oc(=O)c3n3ccc4cc(O)c(OC)cc4c23)cc1O [Lamellarin N] | – | – | – | activity
5 | Lamellarin I | – | significant cytoxicity | significant cytoxicity | –
6 | Lamellarin K | – | significant cytoxicity | significant cytoxicity | –
